The subject of series [1] is 80 human protein kinases (hPKs). As to the kind of experiment: AbbVie panel of 80 human protein kinases. In kind it is biochemical. As to conditions: no hPKs inhibited.
Series [2] relates to 24 off-target liabilities (e.g. ion channels, G-protein receptors). As to the kind of experiment: 24 off-target liability screen.
Series [3] is described as follows: Oral availability. In kind it is in vivo. As to conditions: compared with compound 9 (1294).
Series [4] has as its target Kdr (Homo sapiens (Human), UniProt P35968). As to the kind of experiment: Kinase panel selectivity: Kdr. It counts as biochemical.
The nature of series [5]: Solubility at pH 6.5. In kind it is physicochemical. The note with it: in words.
The target in series [6] is Prkcn (Homo sapiens (Human), UniProt O94806). As to the kind of experiment: Kinase panel selectivity: Prkcn. It counts as biochemical.
Series [7] is described as follows: Stability. As to conditions: in words.
Series [8] addresses hERG (Homo sapiens (Human), UniProt Q12809). As to the kind of experiment: hERG inhibitory activity. It counts as binding. As to conditions: in words, as compared to compound 9 (1294). A general note: The hERG channel carries a current that helps repolarise heart muscle cells.
Series [9] relates to C. parvum Iowa strain. As to the kind of experiment: C. parvum infection in mice (beige/SCID mouse model). As to conditions: oral gavage 20 mg/kg 8 AM and 40 mg/kg 5 PM, days 5-14 after infection; each time point except Days 0 and 3; p ≤0.05.

Chain of Prkcn (O94806 whole entry, looked up, species assumed): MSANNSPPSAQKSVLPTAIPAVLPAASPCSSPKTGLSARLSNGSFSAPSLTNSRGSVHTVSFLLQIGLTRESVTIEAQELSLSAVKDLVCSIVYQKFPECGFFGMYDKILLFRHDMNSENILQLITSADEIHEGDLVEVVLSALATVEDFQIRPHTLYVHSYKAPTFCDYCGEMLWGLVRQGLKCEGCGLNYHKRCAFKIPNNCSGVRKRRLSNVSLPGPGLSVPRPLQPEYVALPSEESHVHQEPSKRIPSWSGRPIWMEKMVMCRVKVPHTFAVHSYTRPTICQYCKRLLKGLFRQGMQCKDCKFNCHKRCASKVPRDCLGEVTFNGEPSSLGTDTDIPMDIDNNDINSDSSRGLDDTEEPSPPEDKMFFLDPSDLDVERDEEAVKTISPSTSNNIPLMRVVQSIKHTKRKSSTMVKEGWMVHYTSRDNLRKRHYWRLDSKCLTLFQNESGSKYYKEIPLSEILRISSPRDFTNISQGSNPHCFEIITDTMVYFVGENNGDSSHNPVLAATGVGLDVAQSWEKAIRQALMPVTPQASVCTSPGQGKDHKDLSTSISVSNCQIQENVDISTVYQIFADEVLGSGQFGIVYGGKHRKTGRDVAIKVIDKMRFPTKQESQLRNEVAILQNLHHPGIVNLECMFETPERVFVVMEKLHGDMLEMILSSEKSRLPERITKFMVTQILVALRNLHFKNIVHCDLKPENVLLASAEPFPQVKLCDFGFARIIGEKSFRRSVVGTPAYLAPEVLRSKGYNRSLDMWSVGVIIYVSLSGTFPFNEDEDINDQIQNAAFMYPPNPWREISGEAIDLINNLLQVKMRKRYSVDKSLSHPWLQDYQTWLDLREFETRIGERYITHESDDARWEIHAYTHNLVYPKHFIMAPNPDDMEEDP
Chain of hERG (Q12809 whole entry): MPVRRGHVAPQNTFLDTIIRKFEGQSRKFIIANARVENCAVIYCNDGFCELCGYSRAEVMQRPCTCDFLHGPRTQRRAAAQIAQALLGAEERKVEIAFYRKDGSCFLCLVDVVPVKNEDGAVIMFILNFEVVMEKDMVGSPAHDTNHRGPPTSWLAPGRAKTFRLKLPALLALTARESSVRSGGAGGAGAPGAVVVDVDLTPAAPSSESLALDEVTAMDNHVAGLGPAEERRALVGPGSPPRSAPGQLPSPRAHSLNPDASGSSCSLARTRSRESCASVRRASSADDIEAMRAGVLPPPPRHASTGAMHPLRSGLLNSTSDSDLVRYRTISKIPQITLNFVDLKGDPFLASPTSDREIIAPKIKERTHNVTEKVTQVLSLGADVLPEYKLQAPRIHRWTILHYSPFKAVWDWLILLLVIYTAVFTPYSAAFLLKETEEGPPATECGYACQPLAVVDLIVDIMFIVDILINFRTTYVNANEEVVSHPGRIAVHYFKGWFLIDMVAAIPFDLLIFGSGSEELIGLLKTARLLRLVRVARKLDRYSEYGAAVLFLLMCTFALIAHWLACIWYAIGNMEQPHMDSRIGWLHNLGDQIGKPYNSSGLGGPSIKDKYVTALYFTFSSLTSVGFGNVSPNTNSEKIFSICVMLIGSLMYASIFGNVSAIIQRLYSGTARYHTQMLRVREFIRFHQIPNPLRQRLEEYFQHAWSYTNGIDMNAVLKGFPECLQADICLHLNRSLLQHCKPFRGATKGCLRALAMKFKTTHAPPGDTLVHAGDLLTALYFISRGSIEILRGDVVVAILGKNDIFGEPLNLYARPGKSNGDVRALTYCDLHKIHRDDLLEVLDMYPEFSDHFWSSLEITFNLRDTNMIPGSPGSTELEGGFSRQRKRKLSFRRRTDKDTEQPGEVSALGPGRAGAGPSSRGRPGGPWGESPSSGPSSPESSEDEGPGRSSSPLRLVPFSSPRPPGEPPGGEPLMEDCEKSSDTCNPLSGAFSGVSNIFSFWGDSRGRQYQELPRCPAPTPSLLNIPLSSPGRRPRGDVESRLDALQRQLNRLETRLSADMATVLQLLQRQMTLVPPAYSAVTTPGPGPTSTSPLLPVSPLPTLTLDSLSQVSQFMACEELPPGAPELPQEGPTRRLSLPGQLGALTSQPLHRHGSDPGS
Chain of Kdr (P35968 20-1356, species assumed): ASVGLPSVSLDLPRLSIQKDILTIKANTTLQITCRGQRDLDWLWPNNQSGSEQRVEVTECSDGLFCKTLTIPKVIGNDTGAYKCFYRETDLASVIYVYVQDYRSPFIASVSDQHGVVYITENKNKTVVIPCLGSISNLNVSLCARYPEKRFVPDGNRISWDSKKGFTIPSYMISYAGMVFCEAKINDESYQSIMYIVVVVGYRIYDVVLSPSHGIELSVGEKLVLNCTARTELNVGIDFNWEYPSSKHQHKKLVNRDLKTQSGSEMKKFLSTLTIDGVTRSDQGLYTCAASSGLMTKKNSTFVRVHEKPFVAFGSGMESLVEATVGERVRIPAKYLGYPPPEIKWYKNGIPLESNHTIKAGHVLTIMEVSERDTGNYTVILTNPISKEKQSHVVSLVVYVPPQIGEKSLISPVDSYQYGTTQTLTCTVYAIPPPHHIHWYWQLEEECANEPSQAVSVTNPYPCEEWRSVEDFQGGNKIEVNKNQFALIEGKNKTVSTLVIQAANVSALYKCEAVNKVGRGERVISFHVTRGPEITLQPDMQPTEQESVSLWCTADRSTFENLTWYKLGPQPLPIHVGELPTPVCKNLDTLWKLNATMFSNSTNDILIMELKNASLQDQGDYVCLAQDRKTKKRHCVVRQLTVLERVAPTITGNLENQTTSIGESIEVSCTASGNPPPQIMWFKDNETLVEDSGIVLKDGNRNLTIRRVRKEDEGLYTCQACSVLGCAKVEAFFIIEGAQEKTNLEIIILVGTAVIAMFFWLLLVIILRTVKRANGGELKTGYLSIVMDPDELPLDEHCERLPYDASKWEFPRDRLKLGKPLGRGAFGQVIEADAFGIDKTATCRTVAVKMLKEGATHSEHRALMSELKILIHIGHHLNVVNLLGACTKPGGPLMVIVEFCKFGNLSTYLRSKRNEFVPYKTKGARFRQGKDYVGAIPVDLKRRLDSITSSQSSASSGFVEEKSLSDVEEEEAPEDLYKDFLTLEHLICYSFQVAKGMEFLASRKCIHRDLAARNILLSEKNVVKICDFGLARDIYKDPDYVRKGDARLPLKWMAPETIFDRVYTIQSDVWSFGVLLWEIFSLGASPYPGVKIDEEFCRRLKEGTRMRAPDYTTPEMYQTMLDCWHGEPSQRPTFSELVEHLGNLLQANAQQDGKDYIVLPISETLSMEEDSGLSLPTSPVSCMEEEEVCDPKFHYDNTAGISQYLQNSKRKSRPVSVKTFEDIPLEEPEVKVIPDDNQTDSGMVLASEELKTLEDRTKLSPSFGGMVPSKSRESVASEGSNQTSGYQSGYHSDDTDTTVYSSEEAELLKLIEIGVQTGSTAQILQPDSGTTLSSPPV

Take `CCOc1ccc2cc(-c3nn(C(C)(C)C)c(N)c3C(N)=O)cnc2c1` [Compound 39, 5-amino-1-(tert-butyl)-3-(7-ethoxyquinolin-3-yl)-1H-pyrazole-4-carboxamide]: the “inhibition of hPKs, level without inhibition” value in series [1] is greater than 3 µM. Moreover, the “signal in 24 off-target liability screen” value in series [2] is reported as “no signal was detected”. Further, the oral availability result in series [3] is reported as “higher oral availability”. In series [4], the “Kdr pKi” value was determined as 6.24. Also, the solubility entry in [5] is “good solubility”. In series [6], the “Prkcn pKi” value came out at 6.37. The stability entry in [7] is reported as “good stability”. Besides, in series [8], the hERG inhibitory activity result is “no hERG inhibitory activity”. Further, the “oocysts shed in stool, difference between treated and vehicle groups” value in series [9] is on record as “the difference was significant”.

The record behind these values is patent US9956214B2, “5-aminopyrazole-4-carboxamide inhibitors of CDPK1 from T. gondii and C. parvum” (UNIVERSITY OF WASHINGTON THROUGH ITS CENTER FOR …, priority 2013, dated 2018).
